Data reported in ChEMBL document CHEMBL3988442, “University of Dundee, Small-Polar-MMV Screening Library” (2021).

How the values were obtained:
[1] = microbe, parasite or virus in culture; details: Mycobacterium tuberculosis, 72 h, read-out: pIC50 (converted)
[2] = microbe, parasite or virus in culture; details: Mycobacterium tuberculosis, 96 h, read-out: pIC50 (converted)

With `CCSCCOc1ccc(CO)nc1` the IC50 [1] was 216 µM and the IC50 [2] was > 501 µM.
In the case of `CN1C(=O)c2ccc(C(=O)NC3CC3)cc2C1=O`, the IC50 [1] is reported as > 501 µM and the IC50 [2] is reported as > 501 µM.
For `Cc1ncc(Cn2cc(F)ccc2=O)s1`, the IC50 [1] was > 501 µM and the IC50 [2] was > 501 µM.
In the case of `N#Cc1ccc(C(=O)NCC2CC2)cc1`, the IC50 [1] is reported as 123 µM and the IC50 [2] is reported as 123 µM.
In the case of `CC(C)c1cccc(S(=O)(=O)NCCCN)c1`, the IC50 [1] is reported as 195 µM and the IC50 [2] is reported as > 501 µM.
`O=C(CNc1ccccc1F)N1CCCCC1` gave an IC50 [1] of 71.6 µM and an IC50 [2] of 36.6 µM.
For `NS(=O)(=O)c1ccc(NC(=O)Cn2ccnc2)cc1`, the IC50 [1] was > 501 µM and the IC50 [2] was > 501 µM.
For `Cc1cccc(N2CCN(CCCN)CC2)c1`, the IC50 [1] was > 501 µM and the IC50 [2] was > 501 µM.
`CNCCc1ccccc1OC` gave an IC50 [1] of 74.4 µM and an IC50 [2] of 124 µM.
With `NCC1CCCN1CCc1ccccc1` (configuration not stated) the IC50 [1] was > 501 µM and the IC50 [2] was > 501 µM.
For `COCCN(C)CCNC(=O)c1cc2ccccc2[nH]1`, the IC50 [1] was > 501 µM and the IC50 [2] was > 501 µM.
With `Cc1nc(CNC(=O)c2cc(C3CC3)[nH]n2)cs1` the IC50 [1] was > 501 µM and the IC50 [2] was > 501 µM.
Molecule `CC(C)CCNC(=O)Cn1c(=O)oc2ccccc21` has an IC50 [1] of 401 µM and an IC50 [2] of 274 µM.
In the case of `CCOC(=O)c1ccc(CN2CCOCC2)cn1`, the IC50 [1] is reported as > 501 µM and the IC50 [2] is reported as > 501 µM.
In the case of `NCc1cccc(-c2nc(-c3ccncc3)no2)c1`, the IC50 [1] is reported as > 501 µM and the IC50 [2] is reported as 286 µM.
Work on `CCNC1=NN=C(c2ccc(OC)c(F)c2)CS1` yielded an IC50 [1] of 137 µM and an IC50 [2] of 134 µM.
With `CCCc1cc(CN(C)C(=O)c2cccs2)n[nH]1` the IC50 [1] was 293 µM and the IC50 [2] was 437 µM.
In the case of `CCC(C)NC(=O)Cc1ccc2c(c1)OCCO2` (configuration not stated), the IC50 [1] is reported as > 501 µM and the IC50 [2] is reported as > 501 µM.
In the case of `CCOCCOc1cc(C)ccc1CN`, the IC50 [1] is reported as 208 µM and the IC50 [2] is reported as > 501 µM.
With `O=C(CSc1ccc(F)cc1)N1CCC1` the IC50 [1] was 180 µM and the IC50 [2] was > 501 µM.
In the case of `CCC(CC)C(CN)N(C)C` (configuration not stated), the IC50 [1] is reported as 78.1 µM and the IC50 [2] is reported as 204 µM.
Molecule `CC(Sc1nc2ccccc2o1)C(=O)N1CCOCC1` (configuration not stated) has an IC50 [1] of 19.2 µM and an IC50 [2] of 11.7 µM.
With `C=C(C)CN1CCC(NC(=O)N2CCSCC2)CC1` the IC50 [1] was > 501 µM and the IC50 [2] was > 501 µM.
For `CN1N=C(C(=O)NCc2csc(Br)c2)CCC1=O`, the IC50 [1] was 147 µM and the IC50 [2] was 51 µM.
`COc1ccc(Br)c(CN)c1` gave an IC50 [1] of 116 µM and an IC50 [2] of 184 µM.
In the case of `COc1ccc(CN2CCCNCC2)cc1`, the IC50 [1] is reported as 258 µM and the IC50 [2] is reported as 163 µM.
In the case of `COc1ccccc1NC(=O)c1ccc(C)nc1`, the IC50 [1] is reported as > 501 µM and the IC50 [2] is reported as > 501 µM.
For `COC(=O)CSc1nc(N)c2ccsc2n1`, the IC50 [1] was 250 µM and the IC50 [2] was > 501 µM.
In the case of `c1ccc(-c2noc(CN3CCCC3)n2)cc1`, the IC50 [1] is reported as 63.9 µM and the IC50 [2] is reported as 82.1 µM.
`CN(CC(=O)N1CCOCC1)Cc1cc(Br)cs1` gave an IC50 [1] of 114 µM and an IC50 [2] of 55.2 µM.
For `O=C(CSCc1ccc(Cl)s1)N1CCOCC1`, the IC50 [1] was 304 µM and the IC50 [2] was 286 µM.
In the case of `Cc1noc(CNC(CCO)C(C)C)n1` (configuration not stated), the IC50 [1] is reported as > 501 µM and the IC50 [2] is reported as > 501 µM.
Molecule `CCC(N)C(=O)Nc1ccc2c(c1)CCC2` (configuration not stated) has an IC50 [1] of 170 µM and an IC50 [2] of 176 µM.
With `Cc1cc(Br)cc(C(=O)NCc2nccc(N)n2)c1` the IC50 [1] was > 501 µM and the IC50 [2] was > 501 µM.
`COc1ccc([S+]([O-])Cc2noc(C)n2)cc1` (configuration not stated) showed an IC50 [1] of 206 µM and an IC50 [2] of 143 µM.
Work on `CCC(C)C(=O)NCCNc1ccc(C(F)(F)F)cn1` (configuration not stated) yielded an IC50 [1] of 51.5 µM and an IC50 [2] of 57.7 µM.
`NCc1ccc(Cl)cn1` showed an IC50 [1] of 324 µM and an IC50 [2] of 249 µM.
In the case of `Cc1ccc(C(=O)NCCNS(=O)(=O)C(C)C)cc1F`, the IC50 [1] is reported as 155 µM and the IC50 [2] is reported as > 501 µM.
For `O=C(NCc1ccco1)Nc1nc2c(s1)COCC2`, the IC50 [1] was > 501 µM and the IC50 [2] was > 501 µM.
In the case of `O=C(c1cccc(F)c1)N1CCN(c2nccs2)CC1`, the IC50 [1] is reported as 228 µM and the IC50 [2] is reported as > 501 µM.
With `COc1ccccc1CN1CCC(N)CC1` the IC50 [1] was 130 µM and the IC50 [2] was > 501 µM.
In the case of `O=C(COCC(F)(F)F)NCc1cn2ccccc2n1`, the IC50 [1] is reported as 92.3 µM and the IC50 [2] is reported as > 501 µM.
For `NCCc1ccc(N2CCOCC2)c(F)c1`, the IC50 [1] was 154 µM and the IC50 [2] was 263 µM.
With `COc1ccc(C(O)CNC(=O)Nc2nncs2)cc1` (configuration not stated) the IC50 [1] was 195 µM and the IC50 [2] was 380 µM.
In the case of `CSc1ccccc1NC(=O)CCn1cnc(C#N)n1`, the IC50 [1] is reported as > 501 µM and the IC50 [2] is reported as > 501 µM.
Work on `O=C(COC(=O)c1cccs1)c1ccc[nH]1` yielded an IC50 [1] of 429 µM and an IC50 [2] of 211 µM.
Molecule `O=C(CS(=O)(=O)Cc1cccc(Cl)c1)NCC1CC1` has an IC50 [1] of 83.2 µM and an IC50 [2] of 263 µM.
Molecule `O=C(NCC1(CO)CC1)OCc1ccccc1` has an IC50 [1] of 149 µM and an IC50 [2] of 149 µM.
For `CN(CCCN)c1ccccc1F`, the IC50 [1] was 86.1 µM and the IC50 [2] was 129 µM.
In the case of `COC(=O)c1ccc(CCNC(=O)C2CCCO2)cc1` (configuration not stated), the IC50 [1] is reported as 281 µM and the IC50 [2] is reported as 383 µM.
`COc1ccc(-c2noc(C(C)n3ccnc3)n2)cn1` (configuration not stated) gave an IC50 [1] of 300 µM and an IC50 [2] of 442 µM.
In the case of `N#Cc1ccc(OCC(=O)Nc2ccccn2)cc1`, the IC50 [1] is reported as 247 µM and the IC50 [2] is reported as > 501 µM.
`CCC(c1nnc(SCC(=O)NCC(C)C)o1)N(C)C` (configuration not stated) gave an IC50 [1] of 217 µM and an IC50 [2] of 192 µM.
`CCS(=O)(=O)N(C)CCCNc1ccc(Cl)cn1` gave an IC50 [1] of 129 µM and an IC50 [2] of 163 µM.
For `CCC(CO)Nc1ncc(C(F)(F)F)cc1Cl` (configuration not stated), the IC50 [1] was > 501 µM and the IC50 [2] was > 501 µM.
In the case of `CCOc1ccc(C(=O)Nc2ccnc(C)c2)cn1`, the IC50 [1] is reported as 279 µM and the IC50 [2] is reported as > 501 µM.
